Several values for one entry are separate records, joined by “and”; a condition that tells them apart may be missing. Equal entries are not always repeated. Structures can show the parent of a compound that is named as a salt.
Target: T1, Full length human TNNI3K (hTNNI3K) (Homo sapiens, UniProt Q59H18)
T1 construct: His-MBP-TEV-Full length human TNNI3K (hTNNI3K); His (N); MBP (N); TEV cleavage site (N); made in house; host or cells: baculovirus system (printed 'Baculokinase system')
T1 sequence (Q59H18 1-835): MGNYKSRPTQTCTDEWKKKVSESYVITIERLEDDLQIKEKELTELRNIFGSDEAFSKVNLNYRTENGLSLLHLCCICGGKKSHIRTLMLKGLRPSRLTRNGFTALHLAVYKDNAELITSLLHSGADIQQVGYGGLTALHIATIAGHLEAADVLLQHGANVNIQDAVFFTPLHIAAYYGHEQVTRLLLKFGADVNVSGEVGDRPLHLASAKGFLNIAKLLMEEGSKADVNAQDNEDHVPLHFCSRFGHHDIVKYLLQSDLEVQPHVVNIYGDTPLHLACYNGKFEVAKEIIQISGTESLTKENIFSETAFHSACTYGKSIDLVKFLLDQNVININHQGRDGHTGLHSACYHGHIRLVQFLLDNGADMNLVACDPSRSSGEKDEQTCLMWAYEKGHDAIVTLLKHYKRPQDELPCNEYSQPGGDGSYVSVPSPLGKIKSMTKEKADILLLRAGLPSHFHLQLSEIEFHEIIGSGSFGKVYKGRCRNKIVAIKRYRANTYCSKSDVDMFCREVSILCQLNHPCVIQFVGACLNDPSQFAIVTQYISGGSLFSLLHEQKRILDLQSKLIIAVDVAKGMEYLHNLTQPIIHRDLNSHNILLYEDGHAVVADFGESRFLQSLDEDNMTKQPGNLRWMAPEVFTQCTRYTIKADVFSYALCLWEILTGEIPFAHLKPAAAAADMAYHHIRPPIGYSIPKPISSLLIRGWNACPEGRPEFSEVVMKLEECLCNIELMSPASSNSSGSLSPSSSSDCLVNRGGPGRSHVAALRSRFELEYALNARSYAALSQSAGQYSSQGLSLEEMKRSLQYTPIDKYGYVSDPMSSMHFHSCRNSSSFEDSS
Assay: Fluorescent polarization assay of compound inhibition on hTNNI3K ATP binding (Biological Assay Method I)
Settings: displacement of fluorescent ligand from hTNNI3K ATP binding pocket; mean of a minimum of 2 experiments; read-out: pXC50 (the source's name) (converted)
Source text: Materials: His-MBP-TEV-Full length human TNNI3K (hTNNI3K) was expressed in Baculokinase system and purified from amylase affinity column followed by Superdex200. The fluorescent ligand 5-({[2-({[3-({4-[(5-hydroxy-2-methylphenyl)amino]-2-pyrimidinyl}amino)phenyl]carbonyl}amino)ethyl]amino}carbonyl)-2-(6-hydroxy-3-oxo-3H-xanthen-9-yl)benzoic acid was used. The preparation of this fluorescent ligand is disclosed in U.S. Provisional Patent Application No. 61/237,815 filed Aug. 28, 2009, the disclosure of which is incorporated by reference herein. The other buffer components, including MgCl2 (Catalog Number M1028), Bis-Tris (Catalog Number B7535), DTT (Catalog Number D9779) and Chaps (Catalog Number C3023) were purchased from Sigma-Aldrich.
Biological Assay Method I:
A fluorescent polarization assay was used to determine does response of compound inhibition on hTNNI3K ATP binding.
Solution 1: Ten (10) mL of a 5 nM 5-({[2-({[3-({4-[(5-hydroxy-2-methylphenyl)amino]-2-pyrimidinyl}amino)phenyl]carbonyl}amino)ethyl]amino}carbonyl)-2-(6-hydroxy-3-oxo-3H-xanthen-9-yl)benzoic acid solution (Solution 1) was prepared by mixing 5 μL of 1M DTT and 80 μL of 10% (w/v) Chaps and 5 μL of a 10 μM 5-({[2-({[3-({4-[(5-hydroxy-2-methylphenyl)amino]-2-pyrimidinyl}amino)phenyl]carbonyl}amino) ethyl]amino}carbonyl)-2-(6-hydroxy-3-oxo-3H-xanthen-9-yl)benzoic acid stock solution into 9910 μL buffer (20 mM Tris, 15 mM MgCl2, pH 7.5). (Stock solution: 10 μM solution of 5-({[2-({[3-({4-[(5-hydroxy-2-methylphenyl)amino]-2-pyrimidinyl}amino)phenyl]carbonyl}amino)ethyl]amino}carbonyl)-2-(6-hydroxy-3-oxo-3H-xanthen-9-yl)benzoic acid in 100% DMSO)
Solution 2 was formed by mixing 53.8 μL of 2.6 μM hTNNI3K with a 6946.2 μL aliquot of Solution 1 (the above 5-({[2-({[3-({4-[(5-hydroxy-2-methylphenyl)amino]-2-pyrimidinyl}amino)phenyl]carbonyl}amino)ethyl]amino}carbonyl)-2-(6-hydroxy-3-oxo-3H-xanthen-9-yl)benzoic acid solution) to make up a 7 mL of mixture of hTNNI3K and 5-({[2-({[3-({4-[(5-hydroxy-2-methylphenyl)amino]-2-pyrimidinyl}amino)phenyl]carbonyl}amino)ethyl]amino}carbonyl)-2-(6-hydroxy-3-oxo-3H-xanthen-9-yl)benzoic acid (Solution 2).
Fifty (50) nL of inhibitors in DMSO (or DMSO controls) were stamped into a 384-well low volume Greiner black plate, followed by addition of 5 μL of Solution 1 to column 18 and 5 μL Solution 2 to columns 1-17 and 19-24 of the plate. The plate was then spun at 500 rpm for 30 seconds and incubated at room temperature for 60 minutes. After that, the fluorescent polarization was measured on Analyst (ex/em: 485/530 nm, Dichroic: 505). For dose response experiments, normalized data were fit by ABASE/XC50 and pXC50=(log((b−y)/(y−a)))/d−log(x), where x is the compound concentration and y is the % activity at specified compound concentration, a is the minimum % activity, b is the maximum % activity, and d is the Hill slope.
The pXC50s are averaged to determine a mean value, for a minimum of 2 experiments.

| SMILES | IC50 |
| --- | --- |
| CNS(=O)(=O)c1ccc(N2CCCCC2)c(Nc2ncnc3ccc(Cl)cc23)c1 [Example 26, 3-[(6-chloro-4-quinazolinyl)amino]-N-methyl-4-(1-piperidinyl) benzenesulfonamide trifluoroacetate] | 10 to 100 nM |
| CNS(=O)(=O)c1ccc(N(C)C)c(Nc2ncnc3ccc(N(C)C)cc23)c1 [Example 86, 4-(dimethylamino)-3-((6-(dimethylamino)quinazolin-4-yl)amino)-N-methylbenzenesulfonamide bis(trifluoroacetate)] | 10 to 100 nM |
| CNS(=O)(=O)c1ccc(OCC(F)(F)F)c(Nc2ncnc3cc(OCCCOC)ccc23)c1 [Example 75, N-methyl-3-[(7-{[3-(methyloxy)propyl]oxy}-4-quinazolinyl)amino]-4-[(2,2,2-trifluoroethyl)oxy]benzenesulfonamide] | 10 to 100 nM |
| CNS(=O)(=O)c1ccc(OCC(F)(F)F)c(Nc2ncnc3cc(OCCOC)c(OCCOC)cc23)c1 [Example 19, 3-[(6,7-bis{[2-(methyloxy)ethyl]oxy}-4-quinazolinyl)amino]-N-methyl-4-[(2,2,2-trifluoroethyl)oxy] benzenesulfonamide] | 10 to 100 nM |
| CNS(=O)(=O)c1ccc(N2CCC[C@@H]2C(F)(F)F)c(Nc2ncnc3cc(OC)c(OC)cc23)c1 [Example 21, 3-{[6,7-bis(methyloxy)-4-quinazolinyl]amino}-N-methyl-4-[(2R)-2-(trifluoromethyl)-1-pyrrolidinyl] benzenesulfonamide trifluoroacetate] | 1 to 10 nM |
| CNS(=O)(=O)c1ccc(OCC(F)(F)F)c(Nc2ncnc3cc(OC)cc(OC4CCOCC4)c23)c1 [Example 61, N-methyl-3-{[7-(methyloxy)-5-(tetrahydro-2H-pyran-4-yloxy)-4-quinazolinyl]amino}-4-[(2,2,2-trifluoroethyl)oxy] benzenesulfonamide] | 10 to 100 nM |
| CNS(=O)(=O)c1ccc(N(C)C)c(Nc2ncnc3cc(N)ccc23)c1 [Example 85, 3-((7-aminoquinazolin-4-yl)amino)-4-(dimethylamino)-N-methylbenzenesulfonamide] | 10 to 100 nM |
| CNS(=O)(=O)c1ccc(N(C)C)c(Nc2ncnc3cc(OCCCCl)ccc23)c1 [Example 16, 3-({7-[(3-chloropropyl)oxy]-4-quinazolinyl}amino)-4-(dimethylamino)-N-methylbenzenesulfonamide] | 10 to 100 nM |
| CNS(=O)(=O)c1ccc(N(C)C)c(Nc2ncnc3cc(OCCOC)c(OCCOC)cc23)c1 [Example 17, 3-[(6,7-bis{[2-(methyloxy)ethyl]oxy}-4-quinazolinyl)amino]-4-(dimethylamino)-N-methylbenzenesulfonamide trifluoroacetate] | 10 to 100 nM |
| CNS(=O)(=O)c1ccc(N2CCC[C@@H]2C(F)(F)F)c(Nc2ncnc3ccc(Cl)cc23)c1 [Example 22, 3-[(6-chloro-4-quinazolinyl)amino]-N-methyl-4-[(2R)-2-(trifluoromethyl)-1-pyrrolidinyl] benzenesulfonamide trifluoroacetate] | 10 to 100 nM |

More lines, now with the values ahead:

| IC50 | SMILES |
| --- | --- |
| 1 to 10 nM | CNS(=O)(=O)c1ccc(OC(F)(F)F)c(Nc2ncnc3cc(OC)cc(OC)c23)c1 [Example 54, 3-{[5,7-bis(methyloxy)-4-quinazolinyl]amino}-N-methyl-4-[(trifluoromethyl)oxy] benzenesulfonamide hydrochloride] |
| 1 to 10 nM | CNS(=O)(=O)c1ccc(OC(C)C(F)(F)F)c(Nc2ncnc3cc(OC)cc(OC)c23)c1 (stereo not drawn) [Example 49, 3-{[5,7-bis(methyloxy)-4-quinazolinyl]amino}-N-methyl-4-[(2,2,2-trifluoro-1-methylethyl)oxy] benzenesulfonamide trifluoroacetate] |
| 10 to 100 nM | CNS(=O)(=O)c1ccc(OCC(F)(F)F)c(Nc2ncnc3cc(OC)cc(OC(C)C)c23)c1 [Example 47, N-methyl-3-{[5-[(1-methylethyl)oxy]-7-(methyloxy)-4-quinazolinyl]amino}-4-[(2,2,2-trifluoroethyl)oxy] benzenesulfonamide] |
| 10 to 100 nM | CNS(=O)(=O)c1ccc(Cl)c(Nc2ncnc3cc(OC)c(OC)c(OC)c23)c1 [Example 59, 4-chloro-N-methyl-3-{[5,6,7-tris(methyloxy)-4-quinazolinyl]amino}benzene sulfonamide trifluoroacetate] |
| 1 to 10 nM | CCOc1cc(OC)cc2ncnc(Nc3cc(S(=O)(=O)NC)ccc3OCC(F)(F)F)c12 [Example 46, 3-{[5-(ethyloxy)-7-(methyloxy)-4-quinazolinyl]amino}-N-methyl-4-[(2,2,2-trifluoroethyl)oxy] benzenesulfonamide] |
| 10 to 100 nM | CCN(C)c1ccc(S(=O)(=O)NC)cc1Nc1ncnc2cc(OC)c(OC)cc12 [Example 4, 3-{[6,7-bis(methyloxy)-4-quinazolinyl]amino}-4-[ethyl(methyl)amino]-N-methylbenzenesulfonamide] |
| 1 to 10 nM | CNS(=O)(=O)c1ccc(OCC(F)(F)F)c(Nc2ncnc3cc(OC)cc(OC)c23)c1 [Example 31, 3-{[5,7-bis(methyloxy)-4-quinazolinyl]amino}-N-methyl-4-[(2,2,2-trifluoroethyl)oxy]benzenesulfonamide hydrochloride] |
| 1 to 10 nM and ~3.98 nM | CNS(=O)(=O)c1ccc(S(C)(=O)=O)c(Nc2ncnc3cc(OC)c(OC)cc23)c1 [Example 68, 3-{[6,7-bis(methyloxy)-4-quinazolinyl]amino}-N-methyl-4-(methylsulfonyl) benzenesulfonamide trifluoroacetate] |
| 10 to 100 nM | CNS(=O)(=O)c1ccc(Cl)c(Nc2ncnc3cc(OC)cc(OC)c23)c1 [Example 39, 3-{[5,7-bis(methyloxy)-4-quinazolinyl]amino}-4-chloro-N-methylbenzenesulfonamide hydrochloride] |
| 1 to 10 nM | CNS(=O)(=O)c1ccc(OC(C)C(F)(F)F)c(Nc2ncnc3cc(OC)c(OC)c(OC)c23)c1 (stereo not drawn) [Example 62, N-methyl-4-[(2,2,2-trifluoro-1-methylethyl)oxy]-3-{[5,6,7-tris(methyloxy)-4-quinazolinyl]amino}benzene sulfonamide trifluoroacetate] |
| 1 to 10 nM | CNS(=O)(=O)c1ccc(N(C)CC(F)(F)F)c(Nc2ncnc3cc(OC)c(OC)cc23)c1 [Example 35, 3-{[6,7-bis(methyloxy)-4-quinazolinyl]amino}-N-methyl-4-[methyl(2,2,2-trifluoroethyl)amino] benzenesulfonamide trifluoroacetate] |
